The text below walks through data of US8183383B2, “Protein tyrosine phosphatase 1B inhibitor, preparation methods and uses thereof” (Shanghai Institute of Materia Medica, Chinese Academy of …, priority 2007, dated 2012).

The target of one assay is T1, hPTP1B (Homo sapiens, UniProt P18031).
T1 construct: The catalytic structural domain of hPTP1B was expressed in E-coli system by a molecular biology protocol; made in house; host or cells: E. coli
T1 sequence (P18031 3-277 limits assumed): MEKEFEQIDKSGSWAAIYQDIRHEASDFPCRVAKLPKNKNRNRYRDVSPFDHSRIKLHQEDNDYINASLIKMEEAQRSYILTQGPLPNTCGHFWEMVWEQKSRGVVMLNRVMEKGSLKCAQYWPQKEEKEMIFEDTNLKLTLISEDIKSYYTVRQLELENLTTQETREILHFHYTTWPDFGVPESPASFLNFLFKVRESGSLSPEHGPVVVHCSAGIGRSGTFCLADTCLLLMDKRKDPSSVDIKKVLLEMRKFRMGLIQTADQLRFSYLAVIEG
The assay can be described thus: PTP1B inhibition test (pNPP hydrolysis, absorption at 410 nm). It is filed as biochemical. The following applies: recombinant hPTP1B catalytic domain 40 nM, 2 mM pNPP, pH 7.0, 2% DMSO; read-out: IC50(μM), inhibitory activity of the test compounds against PTP1B. An excerpt:
1) Test principle: The catalytic structural domain of hPTP1B was expressed in E-coli system by a molecular biology protocol. The purified hPTP1B recombinant protein can hydrolyze the phosphoester linkage of the pNPP substrate to obtain a product which has a strong light absorption at 410 nm. Therefore, the variation of the enzyme activity and the inhibitory activity of a compound against the enzyme can be observed by directly monitoring the changes in the light absorption at 410 nm. A typical activity assay system is as follows: 50 mM Mops, PH 7.0, 1 mM EDTA, 2 mM DTT, 2 mM PNPP, 2% DMSO, 40 nM hPTP1B.
2) Measuring Index: The light absorption was dynamically measured at 410 nm for 3 min. The slope of the first-order reaction of the dynamic curve thereof was considered as the activity index of the enzymes.
3) Measurement: • 1. 1 mg sample was dissolved in 200 μL DMSO. To each wall of the A2-H11 of a 96-wells polypropylene plate, 20 μL of the solution was added, followed by addition of 80 μL DMSO. The plate was used as mother plate. • 2. To each corresponding wall of a 96-wells polypropylene plate, 2 μL of sample was added with a Biomek 2000 automation workstation. The plate was used as daughter plate for screening. • 3. To each wall of A1-D1 and E12-H12, 2 μL, DMSO was added. These walls were regarded as 100% of enzyme activity for control. • 4. To each wall of A12-D12 and E1-H1, 2 μL positive control with different concentrations (four concentrations prepared by double-fold dilution from […]) was added respectively. • 5. To each wall of A1-H12, 88 μL Assay mix was added respectively. • 6. To each wall of A1-H12, 10 μL hPTP1B was added respectively. • 7. The light absorption was measured at 410 nm for 3 min on a SpectraMAX 340 spectrometer. • 8. Exporting the output into a TXT file, and opening the file with Excel. The average of the Vmax values of A1-D1 and E12-H12 was considered as 100% of enzyme activity.
4) Results: The screening results were the % inhibitory rate against the enzyme when the compound concentration was 20 μg/mL. 1050 value was calculated according to a conventional screening when the inhibitory rate exceeded 50%. The […] value of the positive control, 4-[4-(4-oxalyl-phenoxymethyl)-benzyloxy]-phenyl-oxo-acetic acid, is 5.4 μM [Christopher T. Seto, et al. J. Med. Chem., 2002, 45, 3946-3952].
`CCOC(=O)/C(C)=C\C(C)=C\c1csc([C@H](Cc2ccc(OCc3ccccc3)cc2)NC(=O)CC2CCCCC2)n1` [WY586s]: the half-maximal inhibitory concentration (IC50) – broadly, the midpoint of a concentration-inhibition curve – came out at 2.48 µM.

As for `CCOC(=O)/C(C)=C\C(C)=C\c1csc([C@H](Cc2ccc(OCc3ccccc3)cc2)NC(=O)C2CCCCC2)n1` [WY572s], the IC50 turned out to be 6.29 µM. Still for that read-out and setting: to `CCOC(=O)/C(C)=C\C(C)=C\c1csc([C@H](Cc2ccc(OCc3ccccc3)cc2)NC(=O)N2CCC(C(=O)OCC)CC2)n1` [WY645s] belongs 10.5 µM; to `CCOC(=O)/C(C)=C\C(C)=C\c1nc([C@H](Cc2ccc(OCc3ccccc3)cc2)NC(=O)C2CCCCC2)sc1CC(C)C` [WY628z], 6.68 µM. As to `CCOC(=O)/C(C)=C\C(C)=C\c1csc([C@H](Cc2ccc(OCCO)cc2)NC(=O)C2CCCCC2)n1` [WY526h], the IC50 was over 40 µM. Still for that read-out and setting: the value for `CCOC(=O)/C(C)=C\C(C)=C\c1csc([C@H](Cc2ccc(OCc3ccccc3)cc2)NC(=O)C2CCCC2)n1` [WY558s] was 12.7 µM; that for `CCOC(=O)/C(C)=C\C(C)=C\c1nc([C@H](Cc2ccc(OCc3ccccc3)cc2)NC(=O)C2CCCCC2)sc1-c1ccccc1` [WY648z] was 3.3 µM; that for `CCOC(=O)/C(C)=C\C(C)=C\c1csc([C@H](Cc2ccc(OCc3ccccc3)cc2)NC(=O)C(=O)C2CCCO2)n1` (some centres unmarked) [WY588] was 10.4 µM. Same read-out and setting: the value for `CCOC(=O)/C(C)=C\C(C)=C\c1csc([C@H](Cc2ccc(OCc3ccc(OC)cc3)cc2)NC(=O)C2CCCCC2)n1` [WY602h] was 25.6 µM; that for `CCOC(=O)/C(C)=C\C(C)=C\c1csc([C@H](Cc2ccc(OCc3ccccc3)cc2)NC(=O)C(=O)c2cccs2)n1` [WY600t] was 10.9 µM. Still for that read-out and setting: to `CCOC(=O)/C(C)=C\C(C)=C\c1csc([C@H](Cc2ccc(OCCc3ccccc3)cc2)NC(=O)C2CCCCC2)n1` [WY586h] belongs over 35 µM. Regarding `CCOC(=O)/C(C)=C\C(C)=C\c1csc([C@H](Cc2ccc(OCc3ccccc3)cc2)NC(=O)CC(C)(C)C)n1` [WY560t], the half-inhibitory concentration (IC50) turned out to be 20.2 µM. As for `CCOC(=O)/C(C)=C\C(C)=C\c1csc([C@H](Cc2ccc(OCc3ccccc3)cc2)NC(=O)c2ccc(OC)cc2)n1` [WY596s], the IC50 is 44.8 µM. On the same count and under the same terms, the value for `C/C(=C/C(C)=C/c1csc([C@H](Cc2ccc(OCc3ccccc3)cc2)NC(=O)C2CCCCC2)n1)C(=O)O` [WY544a] was 4.4 µM; that for `CCOC(=O)/C(C)=C\C(C)=C\c1csc([C@H](Cc2ccc(Oc3ccc([N+](=O)[O-])cc3F)cc2)NC(=O)C2CCCCC2)n1` [WY621h] was over 35 µM. Regarding `CCCCOc1ccc(C[C@H](NC(=O)C2CCCCC2)c2nc(/C=C(C)/C=C(/C)C(=O)OCC)cs2)cc1` [WY538h], the IC50 came out at 22.1 µM. Still for that read-out and setting: to `CCOC(=O)/C(C)=C\C(C)=C\c1csc([C@H](Cc2ccc(OCc3ccccc3)cc2)NC(=O)C(=O)c2ccc[nH]2)n1` [WY583] belongs over 35 µM.

For `C=CCc1cc(C[C@H](NC(=O)C2CCCCC2)c2nc(/C=C(C)/C=C(/C)C(=O)OCC)cs2)ccc1O` [WY522b], the IC50 is over 40 µM.

For `C/C(=C/C(C)=C/c1nc([C@H](Cc2ccc(OCc3ccccc3)cc2)NC(=O)CC2CCCCC2)sc1-c1ccccc1)C(=O)O` [WY634a], the IC50 is 3.97 µM. The same measure, in the same setting: to `CCOC(=O)/C(C)=C\C(C)=C\c1csc([C@H](Cc2ccc(OCc3ccccc3)cc2)NC(=O)C2CCC2)n1` [WY544s] belongs over 40 µM; to `CCOC(=O)/C(C)=C\C(C)=C\c1csc([C@H](Cc2ccc(OCc3ccccc3)cc2)NC(=O)COCc2ccccc2)n1` [WY610s], 9.42 µM. With `CCOC(=O)/C(C)=C\C(C)=C\c1csc([C@H](Cc2ccc(OCc3ccccc3)cc2)NC(=O)C(OCc2ccccc2)C(C)C)n1` (some centres unmarked) [WY652s], the 50% inhibitory concentration (IC50) turned out to be 9.98 µM. As to `CCOC(=O)/C(C)=C\C(C)=C\c1csc([C@H](Cc2ccc(OC(C)C(=O)OCC)cc2)NC(=O)C2CCCCC2)n1` (some centres unmarked) [WY582h], the 50% inhibitory concentration (IC50) was over 35 µM. For the compound `CCOC(=O)/C(C)=C\C(C)=C\c1nc([C@@H](Cc2ccc(OCc3ccccc3)cc2)NC(=O)C2CCCCC2)sc1CC(C)C` [WY628z2], the 50% inhibitory concentration (IC50) amounted to 10.5 µM.

The subject of the next assay is insulin receptors (IRs) in CHO/IR cells. The assay can be described thus: Effect on the phosphorylation level of insulin receptors in CHO/IR cells. It is filed as cell-based. The following applies: CHO/IR cells, 0.21, 0.43, 0.85, 1.70 μM, 10 nM insulin stimulation, FIG. 1. An excerpt:
1). Experimental principle: The phosphorylation levels of insulin receptors (IRs) in cells sensitive to insulin are regulated by PTK and PTPase. PTP1B is a negative regulator during the process. It can be evaluated by measuring the phosphorylation level of IRs in CHO/IR cells whether the PTP inhibitor has entered into the cells and how its effect in cells is.
2). Experimental Protocol: • 1. Cell inoculation: Cells in good growth condition were inoculated into a 6-well plate with a density of 3-4×10^5 cells/well. To each well was added 2 mL F12 culture media containing 10% FBS. • 2. Starvation: After cultivation for 24 h, to each well was added 2 mL serum-free F12 culture media. Then the plate was cultivated overnight. • 3. Administration: After removing the old culture media, to each well was added 0.9 mLserum-free F12 culture media containing the test compound, wherein 1 mM Na3VO4 and 0.1% DMSO were used as positive and negative control, respectively. The plate was incubated for 2-4 h. • 4. Insulin stimulation: To each well was added 100 μL 100 nM insulin solution so that the final concentration was 10 nM. The reaction was carried out for 10 min. • 5. Sample collection: After discarding the culture media, to each well was added 150 μL×1 loading buffer. […]
3). Experimental results: The experiment evaluated the effect of WY586s on the phosphorylation levels of insulin receptors in CHO/IR cells. […]
Consider `CCOC(=O)/C(C)=C\C(C)=C\c1csc([C@H](Cc2ccc(OCc3ccccc3)cc2)NC(=O)CC2CCCCC2)n1` [WY586s], for which the “phosphorylation level of IR (p-IR)” value is given as “significantly increases with the increase of the concentration of the inhibitor”.

In another assay the target is T1, hPTP1B.
Test: not given
The following applies: positive control; literature reference Seto et al. J. Med. Chem. 2002; cited from earlier work.
As for `O=C(O)C(=O)c1ccc(OCc2ccc(COc3ccc(C(=O)C(=O)O)cc3)cc2)cc1` [4-[4-(4-oxalyl-phenoxymethyl)-benzyloxy]-phenyl-oxo-acetic acid], the IC50 was 5.4 µM.
